The values that follow come from ChEMBL document CHEMBL1201862, “PubChem BioAssay data set” (2004).

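Following 48 hours of exposure in 96-well plates, responses at five concentrations were used to interpolate endpoints linearly. GI50: concentration for 50% inhibition of growth.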 The source made the active and inactive calls. No stated cut-off is given here; in the data, active = GI50 up to about 1.1 µM and inactive = higher.

Among the test systems are SK-OV-3; NCI-H226; HOP-62; TK-10; MCF7; OVCAR-5; K562; NCI-H522; U-251; SNB-19; MDA-MB-435; DU-145; HT-29; COLO 205; MDA-MB-231; UACC-62; A549; Hs-578T; HOP-92.
Common to all, as to assay: inhibition of tumour cell growth, NCI panel, 48 h

For `O=C(OCC(OC(=O)c1ccccc1)C1CC(C2(O)CCCCC2)C(=O)O1)c1ccccc1` (stereo unspecified), the GI50 in the assay on SK-OV-3 was > 25 µM (inactive); with NCI-H226 it was > 25 µM (inactive); in the assay with HOP-62, > 25 µM (inactive); with TK-10, > 25 µM (inactive); in the assay with MCF7, 21 µM (inactive); in the assay on OVCAR-5, > 25 µM (inactive). For the same molecule, the GI50 in the assay on K562 was 15.9 µM (inactive); with NCI-H522 it was > 25 µM (inactive); in the assay with U-251 it was > 25 µM (inactive); with SNB-19, > 25 µM (inactive); in the assay on MDA-MB-435, > 25 µM (inactive); with DU-145 it was > 25 µM (inactive). Moreover, the GI50 in the assay with HT-29 is 14 µM (inactive); with COLO 205, > 25 µM (inactive); with MDA-MB-231, > 25 µM (inactive); with UACC-62, 0.0462 µM (active); with A549 it was > 25 µM (inactive).
`Clc1ccc(CCN[C@H]2CCCC[C@H]2N2CCCC2)cc1Cl`: the GI50 in the assay with SK-OV-3 is 22.8 µM (inactive); in the assay with NCI-H226, 21.1 µM (inactive); with HOP-62, 20 µM (inactive); in the assay on TK-10, 7.19 µM (inactive); with MCF7 it was 16.1 µM (inactive); in the assay with OVCAR-5, 20.6 µM (inactive). Also, the GI50 was 24.2 µM (inactive) with K562; 17.3 µM (inactive) in the assay with NCI-H522; 43.7 µM (inactive) with U-251; 25.9 µM (inactive) with SNB-19; 18.5 µM (inactive) with MDA-MB-435; 21.8 µM (inactive) in the assay on DU-145. The GI50 in the assay with HT-29 was 9.1 µM (inactive); in the assay with COLO 205, 13.6 µM (inactive); in the assay with MDA-MB-231 it was 25.6 µM (inactive); in the assay on UACC-62 it was 17.8 µM (inactive); in the assay on A549, 26.4 µM (inactive); in the assay with Hs-578T, 39.6 µM (inactive).
`O=[N+]([O-])c1cccc2c1[nH]c1c(-c3ccccc3)nccc12`: the GI50 is 2.01 µM (inactive) in the assay on SK-OV-3; 1.58 µM (inactive) with NCI-H226; 1.87 µM (inactive) in the assay on HOP-62; 2.33 µM (inactive) with MCF7; 3.9 µM (inactive) in the assay with OVCAR-5; 1.99 µM (inactive) with K562. Moreover, the GI50 was 0.849 µM (active) in the assay with NCI-H522; 0.622 µM (active) with HOP-92; 2.51 µM (inactive) in the assay on U-251; 3.19 µM (inactive) with SNB-19; 1.58 µM (inactive) in the assay on HT-29; 2.02 µM (inactive) in the assay on COLO 205. The GI50 is 1.74 µM (inactive) with UACC-62 and 2.67 µM (inactive) with A549.
As to `O=C1C2CN(Cc3ccccc3)CC1CN(CC1CC1)C2`, the GI50 in the assay with SK-OV-3, with NCI-H226, in the assay on HOP-62, with TK-10, in the assay on OVCAR-5 and in the assay on K562 was > 100 µM (inactive) in each case. Further, the GI50 in the assay with NCI-H522, in the assay on HOP-92, in the assay with U-251, in the assay with SNB-19, in the assay on HT-29 and in the assay on COLO 205 was > 100 µM (inactive) each time. The GI50 in the assay on UACC-62 and in the assay on A549 was > 100 µM (inactive) throughout.
`CCN(c1ccc(Br)cc1)c1c(Br)c(=O)nc2ccccn12`: the GI50 with SK-OV-3 was 51.5 µM (inactive); with NCI-H226 it was > 100 µM (inactive); in the assay on HOP-62 it was > 100 µM (inactive); in the assay on TK-10, > 100 µM (inactive); with OVCAR-5 it was > 100 µM (inactive); in the assay on K562, 90.6 µM (inactive). In addition, the GI50 in the assay on NCI-H522 is 62.2 µM (inactive); in the assay with HOP-92, 57.3 µM (inactive); in the assay with U-251, > 100 µM (inactive); in the assay on SNB-19, > 100 µM (inactive); with HT-29, > 100 µM (inactive); with COLO 205, > 100 µM (inactive). Also, the GI50 in the assay on UACC-62 was 65 µM (inactive); with A549, > 100 µM (inactive).
For the molecule `CC(C)N(C(=O)C12C3C4C5(C#N)C3C1(C#N)C5C42I)C(C)C` (stereo unspecified), the GI50 was > 100 µM (inactive) in the assay on SK-OV-3; > 100 µM (inactive) with NCI-H226; > 100 µM (inactive) with HOP-62; > 100 µM (inactive) in the assay with TK-10; > 100 µM (inactive) in the assay on OVCAR-5; > 42.2 µM (inactive) in the assay with K562. Further, the GI50 in the assay on NCI-H522 is > 33.7 µM (inactive); in the assay with HOP-92 it was > 100 µM (inactive); with U-251 it was > 100 µM (inactive); in the assay on SNB-19, > 100 µM (inactive); in the assay on HT-29, > 100 µM (inactive); in the assay on COLO 205 it was > 45.4 µM (inactive). The GI50 with UACC-62 was > 100 µM (inactive); with A549, > 59 µM (inactive).
For the molecule `CC(/C=C/C(=O)c1sc(-n2nc(-c3ccccc3)cc2-c2ccccc2)nc1C)=C\c1ccccc1`, the GI50 in the assay with SK-OV-3 was 38.4 µM (inactive); in the assay on NCI-H226, > 10 µM (inactive); in the assay on HOP-62 it was > 10 µM (inactive); in the assay with TK-10 it was > 10 µM (inactive); in the assay with OVCAR-5 it was > 10 µM (inactive); in the assay on K562 it was 19.9 µM (inactive). For the same molecule, the GI50 is 19 µM (inactive) in the assay on NCI-H522; 8.69 µM (inactive) in the assay with HOP-92; 65.2 µM (inactive) in the assay on U-251; 64.3 µM (inactive) in the assay on SNB-19; > 10 µM (inactive) in the assay on HT-29; > 10 µM (inactive) with COLO 205. Further, the GI50 in the assay on UACC-62 is 40.5 µM (inactive); in the assay on A549, 38.8 µM (inactive).
For `NS(=O)(=O)c1cc(S(N)(=O)=O)c(NC(=O)N(c2ccccc2)c2ccccc2)c(Cl)c1Cl`, the GI50 in the assay with SK-OV-3 is 24 µM (inactive); in the assay with NCI-H226, 18.9 µM (inactive); in the assay on TK-10, 32.7 µM (inactive); with MCF7, 35 µM (inactive); with OVCAR-5, 42.1 µM (inactive); in the assay with K562, 20.1 µM (inactive). Besides, the GI50 in the assay on NCI-H522 is 13.2 µM (inactive); with HOP-92, 1.72 µM (inactive); in the assay on U-251, 24.3 µM (inactive); with SNB-19 it was 40.4 µM (inactive); in the assay with MDA-MB-435 it was 21.5 µM (inactive); with HT-29, 19.5 µM (inactive). Also, the GI50 in the assay on COLO 205 is 22.9 µM (inactive); in the assay with MDA-MB-231 it was 33 µM (inactive); in the assay with UACC-62 it was 26.2 µM (inactive); in the assay on A549 it was 31.8 µM (inactive); with Hs-578T it was 17.2 µM (inactive).
For `O=C(c1cc2c(C(F)(F)F)onc2c2ccccc12)C(F)(F)F`, the GI50 in the assay with SK-OV-3 is 12.3 µM (inactive); with NCI-H226 it was 3.01 µM (inactive); with HOP-62, 2.44 µM (inactive); with TK-10 it was 7.4 µM (inactive); with OVCAR-5, 6.9 µM (inactive); with K562 it was 0.855 µM (active). Further, the GI50 is 1.78 µM (inactive) in the assay on NCI-H522; 1.58 µM (inactive) in the assay on HOP-92; 0.371 µM (active) in the assay with U-251; 3.8 µM (inactive) with SNB-19; 3.7 µM (inactive) in the assay on HT-29; 3.08 µM (inactive) in the assay on COLO 205. The GI50 in the assay with UACC-62 is 2.98 µM (inactive); in the assay with A549, 4.51 µM (inactive).
